Laboratory results: patent US11702404B2, “GLP-1R modulating compounds” (priority 2019, dated 2023)
Read-outs that look alike come from different tables or passages of the source.

Legend:
[1] = target: GLP-1R (Homo sapiens, UniProt P43220); assay: GLP-1R activation: cAMP increase in CHO cells stably expressing GLP-1R; type: cell-based
[2] = Microsomal stability, human liver microsomes (predicted hepatic clearance); settings: predicted from in vitro microsomal stability data
[3] = cAMP increase, CHO cells stably expressing GLP-1R, 10 point dose response, 30 minutes incubation, read-out: EC50

Sequence of GLP-1R (P43220 24-463): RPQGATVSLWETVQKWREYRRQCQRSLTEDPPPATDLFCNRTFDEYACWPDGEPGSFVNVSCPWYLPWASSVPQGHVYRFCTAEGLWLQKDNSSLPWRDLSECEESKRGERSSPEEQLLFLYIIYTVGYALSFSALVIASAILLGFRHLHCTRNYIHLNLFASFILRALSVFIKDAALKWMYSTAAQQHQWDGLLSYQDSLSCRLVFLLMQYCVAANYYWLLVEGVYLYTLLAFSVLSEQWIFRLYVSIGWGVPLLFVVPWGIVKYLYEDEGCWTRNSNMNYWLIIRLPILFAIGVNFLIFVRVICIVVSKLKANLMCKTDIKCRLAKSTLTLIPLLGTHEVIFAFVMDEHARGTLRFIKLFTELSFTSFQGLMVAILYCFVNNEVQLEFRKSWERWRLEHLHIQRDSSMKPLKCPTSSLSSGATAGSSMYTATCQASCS

Compound	EC50 [1, 3] [nM]	Predicted Hepatic Clearance (Pred. Cl.) [2] [mL/min/kg]	EC50 ([1]; EC50 (nM)) [nM]
N#Cc1ccc(COc2cccc(-c3ccc(Cc4nc5c(F)cc(C(=O)O)cc5n4CC4(CF)CC4)c(F)c3)n2)c(F)c1 [Example 361, 2-(4-(6-((4-cyano-2-fluorobenzyl)oxy)pyridin-2-yl)-2-fluorobenzyl)-4-fluoro-1-((1-(fluoromethyl)cyclopropyl)methyl)-1H-benzo[d]imidazole-6-carboxylic acid]	0.74	2.83	–
COCCn1c(Cc2cc(F)c(-c3ccnc(OCc4ccc(C#N)cc4F)n3)cc2F)nc2c(F)cc(C(=O)O)cc21 [Example 280, 2-(4-(2-((4-cyano-2-fluorobenzyl)oxy)pyrimidin-4-yl)-2,5-difluorobenzyl)-4-fluoro-1-(2-methoxyethyl)-1H-benzo[d]imidazole-6-carboxylic acid]	0.62	4	–
COCCn1c(Cc2ccc(-c3cccc(OCc4ccc(C#N)cc4F)n3)cc2F)nc2ccc(C(O)CO)cc21 (racemic) [Example 582]	3460	15.2	–
COCCn1c(Cc2c(F)cc(-c3ccnnc3OCc3ccc(C#N)cc3F)cc2F)nc2ccc(C(=O)O)cc21 [Example 103, 2-[[4-[3-[(4-cyano-2-fluoro-phenyl)methoxy]pyridazin-4-yl]-2,6-difluoro-phenyl]methyl]-3-(2-methoxyethyl)benzimidazole-5-carboxylic acid]	4980	5.17	–
COCCn1c(Cc2ccc(-c3cccc(OCc4ccc(C#N)cc4F)n3)cc2-c2ccncc2)nc2ccc(C(=O)O)cc21 [Example 175, 2-(4-(6-((4-cyano-2-fluorobenzyl)oxy)pyridin-2-yl)-2-(pyridin-4-yl)benzyl)-1-(2-methoxyethyl)-1H-benzo[d]imidazole-6-carboxylic acid]	9270	15.7	–
COCCn1c(Cc2cc(F)c(-c3cccc(OCc4ccc(C#N)cc4F)n3)cc2F)nc2cc(F)c(C(=O)O)cc21 [Example 218, 2-(4-(6-((4-cyano-2-fluorobenzyl)oxy)pyridin-2-yl)-2,5-difluorobenzyl)-5-fluoro-1-(2-methoxyethyl)-1H-benzo[d]imidazole-6-carboxylic acid]	19.1	7.83	–
N#Cc1ccc(COc2cccc(-c3ccc(Cc4nc5ccc(C(=O)O)cc5n4Cc4cscn4)c(F)c3)n2)c(F)c1 [Example 454, 2-(4-(6-((4-cyano-2-fluorobenzyl)oxy)pyridin-2-yl)-2-fluorobenzyl)-1-(thiazol-4-ylmethyl)-1H-benzo[d]imidazole-6-carboxylic acid]	5.53	4.67	–
N#Cc1ccc(COc2cccc(-c3cc(F)c(Cc4nc5ccc(C(=O)O)cc5n4CCOC4CCC4)cc3F)n2)c(F)c1 [Example 628]	13.4	3.17	–
N#CCC1(Cn2c(Cc3c(F)cc(-c4ccc(F)c(OCc5ccc(C#N)cc5F)n4)cc3F)nc3ccc(C(=O)O)cc32)CC1 [Example 154, 2-(4-(6-((4-cyano-2-fluorobenzyl)oxy)-5-fluoropyridin-2-yl)-2,6-difluorobenzyl)-1-((1-(cyanomethyl)cyclopropyl)methyl)-1H-benzo[d]imidazole-6-carboxylic acid]	0.51	4.83	–
O=C(O)c1ccc2nc(Cc3ccc(-c4cccc(OCc5ccc(C(F)(F)F)nc5)n4)c(F)c3)n(C[C@@H]3CCO3)c2c1 [Example 655]	1.26	5.33	–
COCCn1c(Cc2ccc(-c3cccc(OCc4ccc(Cl)cc4OCC(F)(F)F)n3)cc2F)nc2ccc(C(=O)O)cc21 [Example 267, 2-(4-(6-((4-chloro-2-(2,2,2-trifluoroethoxy)benzyl)oxy)pyridin-2-yl)-2-fluorobenzyl)-1-(2-methoxyethyl)-1H-benzo[d]imidazole-6-carboxylic acid]	172	4.58	–
COc1cc(Cl)ccc1COc1nccc(-c2ccc(Cc3nc4ccc(C(=O)O)cc4n3CC3(CC#N)CC3)cc2F)n1 [Example 93, 2-(4-(2-((4-chloro-2-methoxybenzyl)oxy)pyrimidin-4-yl)-3-fluorobenzyl)-1-((1-(cyanomethyl)cyclopropyl)methyl)-1H-benzo[d]imidazole-6-carboxylic acid]	0.28	14.5	–
COCCn1c(Cc2cnn(-c3cccc(OCc4ccc(C#N)cc4F)n3)c2)nc2ccc(C(=O)O)cc21 [Example 107, 2-[[1-[6-[(4-cyano-2-fluoro-phenyl)methoxy]-2-pyridyl]pyrazol-4-yl]methyl]-3-(2-methoxyethyl)benzimidazole-5-carboxylic acid]	3640	13.8	–
COCCn1c(Cc2ccc(-c3cccc(OCc4ccccc4)n3)cc2F)nc2ccc(C(=O)O)cc21 [Example 501, 2-(4-(6-(benzyloxy)pyridin-2-yl)-2-fluorobenzyl)-1-(2-methoxyethyl)-1H-benzo[d]imidazole-6-carboxylic acid]	102	11.5	–
N#Cc1ccc(COc2cccc(-c3ccc(Cc4nc5cc(C(=O)O)ccc5n4CC4(CF)CC4)c(F)c3)n2)c(F)c1 [Example 552, 2-(4-(6-((4-Cyano-2-fluorobenzyl)oxy)pyridin-2-yl)-2-fluorobenzyl)-1-((1-(fluoromethyl)cyclopropyl)methyl)-1H-benzo[d]imidazole-5-carboxylic acid]	18.1	<1.83	–
O=C(O)c1ccc2nc(Cc3cc(F)c(-c4ccnc(OCc5ccc(Cl)cc5F)n4)cc3F)n(C[C@@H]3CCO3)c2c1 [Example 413, (S)-2-(4-(2-((4-chloro-2-fluorobenzyl)oxy)pyrimidin-4-yl)-2,5-difluorobenzyl)-1-(oxetan-2-ylmethyl)-1H-benzo[d]imidazole-6-carboxylic acid]	0.07	<1.83	–
COCCn1c(Cc2ccc(-c3cccc(OCc4cccc(C5CC5)c4)n3)cc2F)nc2ccc(C(=O)O)cc21 [Example 137, 2-(4-(6-((3-cyclopropylbenzyl)oxy)pyridin-2-yl)-2-fluorobenzyl)-1-(2-methoxyethyl)-1H-benzo[d]imidazole-6-carboxylic acid]	32.2	4.83	–
COCCn1c(Cc2ccc(-c3cccc(OCc4cc(C(C)C)ccc4OC)n3)cc2F)nc2ccc(C(=O)O)cc21 [Example 145, 2-(2-fluoro-4-(6-((5-isopropyl-2-methoxybenzyl)oxy)pyridin-2-yl)benzyl)-1-(2-methoxyethyl)-1H-benzo[d]imidazole-6-carboxylic acid]	1730	8.3	–
CC1(Cn2c(Cc3ccc(-c4cccc(OCc5ccc(C#N)cc5F)n4)cc3F)nc3ccc(C(=O)NS(=O)(=O)C4CC4)cc32)CC1 [Example 50, 2-(4-(6-((4-Cyano-2-fluorobenzyl)oxy)pyridin-2-yl)-2-fluorobenzyl)-N-(cyclopropylsulfonyl)-1-((1-methylcyclopropyl)methyl)-1H-benzo[d]imidazole-6-carboxamide]	19	<1.83	–
CO[C@@H]1COC[C@@H]1n1c(Cc2cc(F)c(-c3cccc(OCc4ccc(C#N)cc4F)n3)cc2F)nc2ccc(C(=O)O)cc21 [Example 711]	0.08	6.33	–
N#Cc1ccc(COc2cccc(-c3ccc(Cc4nc5c(F)cc(C(=O)O)cc5n4CC(O)CCO)c(F)c3)n2)c(F)c1 (stereo not drawn) [Example 468, 2-[[4-[6-[(4-cyano-2-fluoro-phenyl)methoxy]-2-pyridyl]-2-fluoro-phenyl]methyl]-3-(2,4-dihydroxybutyl)-7-fluoro-benzimidazole-5-carboxylic acid]	26.9	2.17	–
CCn1cncc1Cn1c(Cc2ccc(-c3cccc(OCc4ccc(C#N)cc4F)n3)cc2C#N)nc2ccc(C(=O)O)cc21 [Example 522, 2-(2-cyano-4-(6-((4-cyano-2-fluorobenzyl)oxy)pyridin-2-yl)benzyl)-1-((1-ethyl-1H-imidazol-5-yl)methyl)-1H-benzo[d]imidazole-carboxylic acid]	137	<1.83	–
COCCn1c(Cc2cc(F)c(-c3cccc(OCc4ccc(C(F)(F)F)cc4F)n3)cc2F)nc2ccc(C(=O)O)cc21 [Example 557, 2-(2,5-difluoro-4-(6-((2-fluoro-4-(trifluoromethyl)benzyl)oxy)pyridin-2-yl)benzyl)-1-(2-methoxyethyl)-1H-benzo[d]imidazole-6-carboxylic acid]	0.47	2.17	–
COCCn1c(Cc2ccc(-c3cccc(OCc4cccc5c4OCCC5)n3)cc2F)nc2ccc(C(=O)O)cc21 [Example 241, 2-(4-(6-(chroman-8-ylmethoxy)pyridin-2-yl)-2-fluorobenzyl)-1-(2-methoxyethyl)-1H-benzo[d]imidazole-6-carboxylic acid]	35.1	9.83	–
COCCn1c(Cc2ccc(-c3cccc(OCc4ccc(C#N)cc4F)n3)cc2COC)nc2ccc(C(=O)O)cc21 [Example 411, 2-(4-(6-((4-cyano-2-fluorobenzyl)oxy)pyridin-2-yl)-2-(methoxymethyl)benzyl)-1-(2-methoxyethyl)-1H-benzo[d]imidazole-6-carboxylic acid]	–	9.33	140
O=C(O)c1ccc2nc(Cc3ccc(-c4ccnc(OCc5ccc(Cl)cc5F)n4)c(F)c3)n(CC3(CF)CC3)c2n1 [Example 318, 2-(4-(2-((4-chloro-2-fluorobenzyl)oxy)pyrimidin-4-yl)-3-fluorobenzyl)-3-((1-(fluoromethyl)cyclopropyl)methyl)-3H-imidazo[4,5-b]pyridine-5-carboxylic acid]	1.07	<1.83	–
O=C(O)c1ccc2nc(Cc3ccc(-c4ccnc(OCc5ccc(C(F)(F)F)cc5F)n4)c(F)c3)n(C[C@@H]3CCO3)c2c1 [Example 788]	0.17	5.5	–
